Laboratory results as given in ChEMBL document CHEMBL1122633, “Interactions of antitumor drugs with natural DNA: 1H NMR study of binding mode and kinetics” (J Med Chem, 1984).

test system: Nucleic Acid; assay: DNA binding dissociation constant as KD; format: nucleic-acid assay

| Compound | Log Kd |
| --- | --- |
| CC[n+]1c(-c2ccccc2)c2cc(N)ccc2c2ccccc21 | 4.9 |
| Cc1c2cc[n+](C)cc2c(C)c2c1[nH]c1ccc(O)cc12 | 6.11 |
| CN(C)CCN1C(=O)c2cccc3cc([N+](=O)[O-])cc(c23)C1=O | 5.16 |
| COc1cccc2c1C(=O)c1c(O)c3c(c(O)c1C2=O)C[C@@](O)(C(C)=O)C[C@@H]3O[C@H]1C[C@H](N)[C@H](O)[C@H](C)O1 | 6.49 |
| CS(=O)(=O)Nc1cccc(Nc2c3ccccc3nc3ccccc23)c1 | 5.8 |
| Cc1cc2nc3ccccc3n(-c3cccc(N(C)C)c3)c-2c(C)c1=N | 3.64 |
| c1ccc2c(c1)[nH]c1cnccc12 | 5.34 |
| Cc1c2ccncc2c(C)c2c1[nH]c1ccccc12 | 5.18 |
| CCN(CC)CCCC(C)Nc1ccnc2cc(Cl)ccc12 (stereo unspecified) | 4.25 |
| CC[n+]1c(-c2ccccc2)c2cc(N)ccc2c2ccc(N)cc21 | 5.7 |
| CS(=O)(=O)Nc1ccccc1Nc1c2ccccc2nc2ccccc12 | 5.72 |
| c1ccc2c(c1)ccc1[n+]2Cc2ccc3ccccc3[n+]2-1 | 4.7 |
| Nc1c2ccccc2nc2ccccc12 | 5.7 |
| C[n+]1c(-c2ccccc2)c2cc(N)ccc2c2ccc(N)cc21 | 5.7 |
| CCN(CC)CCOc1ccc2c(c1)C(=O)c1cc(OCCN(CC)CC)ccc1-2 | 5.64 |
| COc1cc(NS(C)(=O)=O)ccc1Nc1c2ccccc2nc2ccccc12 | 5.14 |
| Cc1c2ccncc2c(C)c2c1[nH]c1ccc(O)cc12 | 0.3 |
| C[n+]1ccc(Nc2ccc(NC(=O)c3ccc(Nc4cc[n+](C)c5ccc(N)cc45)cc3)cc2)cc1 | 6.9 |
| CCN(CC)CCCC(C)Nc1c2ccc(Cl)cc2nc2ccc(OC)cc12 (stereo unspecified) | 4.25 |
| Cn1cc(NC(=O)c2cc(NC(=O)c3cc(NC=O)cn3C)cn2C)cc1C(=O)NCCC(=N)N | 6.06 |
| CS(=O)(=O)Nc1ccc(Nc2c3ccccc3nc3ccccc23)cc1 | 5.63 |
